{
  "source": "patent US12583848B2",
  "about": "“Isoxazole-3-carboxamide derivatives and their use for treatment of diseases caused by virus infection” (Collaborations Pharmaceuticals, Inc., priority 2019, dated 2026)",
  "system": "CVB3 97927-I1207M (pleconaril-resistant variant)",
  "format": "cell-based, coxsackievirus B3",
  "data": [
    {"smiles": "Cc1cc(-c2noc(C(F)(F)F)n2)ccc1OCCCc1cc(C(=O)N(C)C)no1", "note": "[Compound 8, N,N-dimethyl-5-(3-{2-methyl-4-[5-(trifluoromethyl)-1,2,4-oxadiazol-3-yl]phenoxy}propyl)isoxazole-3-carboxamide]", "values": [
      {"measurement": "IC50", "value": 4, "unit": "nM"}
    ]}
  ]
}
